Laboratory results from PubChem BioAssay (NCI).
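Step 1: Grow cells in 96-well plates. Step 2: Expose to compound for 48 hours at 5 concentrations. Step 3: Interpolate endpoints linearly; if unreached, use highest concentration. At the GI50, growth is halved. At the TGI there is no net growth.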

How the values were obtained:
Assay in all cases: NCI-60 cell line screen, 48 h
786-0 renal = tested on: 786-0 renal
HL-60(TB) leukemia = tested on: HL-60(TB) leukemia
HOP-62 NSCLC = tested on: HOP-62 NSCLC
HT29 colon = tested on: HT29 colon
MDA-MB-435 = tested on: MDA-MB-435
PC-3 prostate = tested on: PC-3 prostate
RXF 393 renal = tested on: RXF 393 renal
SK-OV-3 ovarian = tested on: SK-OV-3 ovarian
SW-620 colon = tested on: SW-620 colon
U251 CNS = tested on: U251 CNS

Structure (SMILES): C=C1[C@@H](O)C[C@H]2C(C)(C)C[C@H](Cl)C[C@]2(C)[C@H]1C[C@H](O)[C@H]1CC(=O)NC1=O
- GI50 (786-0 renal): 0.0149 µM
- TGI (786-0 renal): 0.136 µM
- GI50 (HL-60(TB) leukemia): < 0.0107 µM
- TGI (HL-60(TB) leukemia): 0.0547 µM
- GI50 (HOP-62 NSCLC): 0.0116 µM
- TGI (HOP-62 NSCLC): 0.0961 µM
- GI50 (HT29 colon): < 0.0105 µM
- TGI (HT29 colon): 0.119 µM
- GI50 (MDA-MB-435): 0.016 µM
- TGI (MDA-MB-435): 0.312 µM
- GI50 (PC-3 prostate): 0.0174 µM
- TGI (PC-3 prostate): 0.264 µM
- GI50 (RXF 393 renal): 0.0132 µM
- TGI (RXF 393 renal): 0.0722 µM
- GI50 (SK-OV-3 ovarian): 0.0135 µM
- TGI (SK-OV-3 ovarian): 0.157 µM
- GI50 (SW-620 colon): 0.0114 µM
- TGI (SW-620 colon): 4.94 µM
- GI50 (U251 CNS): < 0.01 µM
- TGI (U251 CNS): 0.108 µM

Structure (SMILES): O=C(NCCNC(=O)c1ccc(F)cc1)Nc1ccc(-n2cc(-c3ccncc3)c(-c3ccc(Cl)c(O)c3)n2)cc1
- GI50 (786-0 renal): 0.997 µM
- TGI (786-0 renal): 5.77 µM
- GI50 (HL-60(TB) leukemia): 0.273 µM
- TGI (HL-60(TB) leukemia): 0.848 µM
- GI50 (HOP-62 NSCLC): 0.697 µM
- TGI (HOP-62 NSCLC): 23.1 µM
- GI50 (HT29 colon): 0.377 µM
- TGI (HT29 colon): 1.41 µM
- GI50 (MDA-MB-435): 0.189 µM
- TGI (MDA-MB-435): 0.577 µM
- GI50 (PC-3 prostate): 0.39 µM
- TGI (PC-3 prostate): 8.21 µM
- GI50 (RXF 393 renal): 0.288 µM
- TGI (RXF 393 renal): 3.69 µM
- GI50 (SK-OV-3 ovarian): 0.746 µM
- TGI (SK-OV-3 ovarian): 48.5 µM
- GI50 (SW-620 colon): 0.43 µM
- TGI (SW-620 colon): > 100 µM
- GI50 (U251 CNS): 0.391 µM
- TGI (U251 CNS): 2.64 µM

Structure (SMILES): COc1ccc2c(c1)C(=O)c1c-2n(CCCN=[N+]=[N-])c(=O)c2cc(N)ccc12
- GI50 (786-0 renal): > 100 µM
- TGI (786-0 renal): > 100 µM
- GI50 (HL-60(TB) leukemia): > 100 µM
- TGI (HL-60(TB) leukemia): > 100 µM
- GI50 (HOP-62 NSCLC): > 100 µM
- TGI (HOP-62 NSCLC): > 100 µM
- GI50 (HT29 colon): 47.6 µM
- TGI (HT29 colon): > 100 µM
- GI50 (MDA-MB-435): > 100 µM
- TGI (MDA-MB-435): > 100 µM
- GI50 (PC-3 prostate): > 100 µM
- TGI (PC-3 prostate): > 100 µM
- GI50 (RXF 393 renal): 57.6 µM
- TGI (RXF 393 renal): > 100 µM
- GI50 (SK-OV-3 ovarian): > 100 µM
- TGI (SK-OV-3 ovarian): > 100 µM
- GI50 (SW-620 colon): > 100 µM
- TGI (SW-620 colon): > 100 µM
- GI50 (U251 CNS): > 100 µM
- TGI (U251 CNS): > 100 µM

Structure (SMILES): Cc1ccc(NC(=O)N2CCCCC2)cc1[N+](=O)[O-]
- GI50 (786-0 renal): > 100 µM
- TGI (786-0 renal): > 100 µM
- GI50 (HL-60(TB) leukemia): > 100 µM
- TGI (HL-60(TB) leukemia): > 100 µM
- GI50 (HOP-62 NSCLC): > 100 µM
- TGI (HOP-62 NSCLC): > 100 µM
- GI50 (HT29 colon): > 100 µM
- TGI (HT29 colon): > 100 µM
- GI50 (MDA-MB-435): > 100 µM
- TGI (MDA-MB-435): > 100 µM
- GI50 (PC-3 prostate): > 100 µM
- TGI (PC-3 prostate): > 100 µM
- GI50 (RXF 393 renal): > 100 µM
- TGI (RXF 393 renal): > 100 µM
- GI50 (SK-OV-3 ovarian): > 100 µM
- TGI (SK-OV-3 ovarian): > 100 µM
- GI50 (SW-620 colon): > 100 µM
- TGI (SW-620 colon): > 100 µM
- GI50 (U251 CNS): > 100 µM
- TGI (U251 CNS): > 100 µM

Structure (SMILES): Cn1ccc2c3c(=O)cc[nH]c3ccc21
- GI50 (786-0 renal): > 100 µM
- TGI (786-0 renal): > 100 µM
- GI50 (HL-60(TB) leukemia): > 100 µM
- TGI (HL-60(TB) leukemia): > 100 µM
- GI50 (HOP-62 NSCLC): > 100 µM
- TGI (HOP-62 NSCLC): > 100 µM
- GI50 (HT29 colon): > 100 µM
- TGI (HT29 colon): > 100 µM
- GI50 (MDA-MB-435): > 100 µM
- TGI (MDA-MB-435): > 100 µM
- GI50 (PC-3 prostate): > 100 µM
- TGI (PC-3 prostate): > 100 µM
- GI50 (RXF 393 renal): > 100 µM
- TGI (RXF 393 renal): > 100 µM
- GI50 (SK-OV-3 ovarian): 80.1 µM
- TGI (SK-OV-3 ovarian): > 100 µM
- GI50 (SW-620 colon): > 100 µM
- TGI (SW-620 colon): > 100 µM
- GI50 (U251 CNS): > 100 µM
- TGI (U251 CNS): > 100 µM

Structure (SMILES): CC(=O)N1N=C(c2ccc(Nc3nc(Nc4ccc(F)cc4)nc(Nc4ccc(Cl)cc4)n3)cc2)CC1c1ccc(N(C)C)cc1 (configuration not stated)
- GI50 (786-0 renal): 3.65 µM
- TGI (786-0 renal): 13.7 µM
- GI50 (HL-60(TB) leukemia): 5.04 µM
- TGI (HL-60(TB) leukemia): 15.7 µM
- GI50 (HOP-62 NSCLC): 3.25 µM
- TGI (HOP-62 NSCLC): 13.2 µM
- GI50 (HT29 colon): 3.58 µM
- TGI (HT29 colon): > 75.9 µM
- GI50 (MDA-MB-435): 5.68 µM
- TGI (MDA-MB-435): 20.9 µM
- GI50 (PC-3 prostate): 3.18 µM
- TGI (PC-3 prostate): > 64.8 µM
- GI50 (RXF 393 renal): 1.63 µM
- TGI (RXF 393 renal): 5.33 µM
- GI50 (SK-OV-3 ovarian): 6.82 µM
- TGI (SK-OV-3 ovarian): > 31.2 µM
- GI50 (SW-620 colon): 13.3 µM
- TGI (SW-620 colon): 56.8 µM
- GI50 (U251 CNS): 4.2 µM
- TGI (U251 CNS): 35.7 µM

Structure (SMILES): Cc1[nH]c(=O)nc(N/N=C/c2ccc(Cl)cc2)c1C(=O)Nc1ccc(Cl)cc1
- TGI (786-0 renal): 47.6 µM
- TGI (HL-60(TB) leukemia): > 100 µM
- TGI (HOP-62 NSCLC): 26 µM
- TGI (HT29 colon): > 100 µM
- TGI (MDA-MB-435): > 100 µM
- TGI (PC-3 prostate): > 100 µM
- TGI (RXF 393 renal): 32.9 µM
- TGI (SK-OV-3 ovarian): 57.9 µM
- TGI (SW-620 colon): > 89.3 µM
- TGI (U251 CNS): 23.5 µM

Structure (SMILES): O=C1c2ccccc2C(=O)c2sc(Nc3ccc(Cl)cc3)nc21
- TGI (786-0 renal): 3.93 µM
- TGI (HL-60(TB) leukemia): 1.05 µM
- TGI (HOP-62 NSCLC): 9.26 µM
- TGI (HT29 colon): 15.5 µM
- GI50 (MDA-MB-435): 1.29 µM
- TGI (MDA-MB-435): 2.69 µM
- GI50 (PC-3 prostate): 2.49 µM
- TGI (PC-3 prostate): 10.5 µM
- TGI (RXF 393 renal): 3.65 µM
- TGI (SK-OV-3 ovarian): 30.4 µM
- TGI (SW-620 colon): 3.31 µM
- TGI (U251 CNS): 3.55 µM
